Results reported in US12421225B2, “Heteroaromatic amide derivative and medicament containing the same” (KAKEN PHARMACEUTICAL CO., LTD., priority 2018, dated 2025).

Columns and labels:
human Nav1.7 = human Nav1.7 (Homo sapiens (Human), UniProt Q15858); assay: Human Nav1.7 inhibitory activity evaluation (automated patch clamp QPatch16X, HEK293A cells stably expressing human Nav1.7 and human Navβ1); type: cell-based; conditions: human Nav1.7, automated patch clamp
Procedure, shortened: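 IC50 calculated from the concentration-response of inward current evoked by the second −10 mV, 50 ms depolarisation, which follows a 15 s conditioning step at roughly 30-40% inactivation and a 100 ms −120 mV interval. Cells: HEK293A expressing human Nav1.7/Navβ1, automated patch clamp, room temperature, 0.1% DMSO final.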

human Nav1.5 = human Nav1.5 (Homo sapiens (Human), UniProt Q14524); assay: Human Nav1.5 inhibitory activity evaluation (automated patch clamp QPatch16X, HEK293 cells stably expressing human Nav1.5); type: cell-based; conditions: human Nav1.5, automated patch clamp
human Nav1.5, sequence (Q14524 whole entry): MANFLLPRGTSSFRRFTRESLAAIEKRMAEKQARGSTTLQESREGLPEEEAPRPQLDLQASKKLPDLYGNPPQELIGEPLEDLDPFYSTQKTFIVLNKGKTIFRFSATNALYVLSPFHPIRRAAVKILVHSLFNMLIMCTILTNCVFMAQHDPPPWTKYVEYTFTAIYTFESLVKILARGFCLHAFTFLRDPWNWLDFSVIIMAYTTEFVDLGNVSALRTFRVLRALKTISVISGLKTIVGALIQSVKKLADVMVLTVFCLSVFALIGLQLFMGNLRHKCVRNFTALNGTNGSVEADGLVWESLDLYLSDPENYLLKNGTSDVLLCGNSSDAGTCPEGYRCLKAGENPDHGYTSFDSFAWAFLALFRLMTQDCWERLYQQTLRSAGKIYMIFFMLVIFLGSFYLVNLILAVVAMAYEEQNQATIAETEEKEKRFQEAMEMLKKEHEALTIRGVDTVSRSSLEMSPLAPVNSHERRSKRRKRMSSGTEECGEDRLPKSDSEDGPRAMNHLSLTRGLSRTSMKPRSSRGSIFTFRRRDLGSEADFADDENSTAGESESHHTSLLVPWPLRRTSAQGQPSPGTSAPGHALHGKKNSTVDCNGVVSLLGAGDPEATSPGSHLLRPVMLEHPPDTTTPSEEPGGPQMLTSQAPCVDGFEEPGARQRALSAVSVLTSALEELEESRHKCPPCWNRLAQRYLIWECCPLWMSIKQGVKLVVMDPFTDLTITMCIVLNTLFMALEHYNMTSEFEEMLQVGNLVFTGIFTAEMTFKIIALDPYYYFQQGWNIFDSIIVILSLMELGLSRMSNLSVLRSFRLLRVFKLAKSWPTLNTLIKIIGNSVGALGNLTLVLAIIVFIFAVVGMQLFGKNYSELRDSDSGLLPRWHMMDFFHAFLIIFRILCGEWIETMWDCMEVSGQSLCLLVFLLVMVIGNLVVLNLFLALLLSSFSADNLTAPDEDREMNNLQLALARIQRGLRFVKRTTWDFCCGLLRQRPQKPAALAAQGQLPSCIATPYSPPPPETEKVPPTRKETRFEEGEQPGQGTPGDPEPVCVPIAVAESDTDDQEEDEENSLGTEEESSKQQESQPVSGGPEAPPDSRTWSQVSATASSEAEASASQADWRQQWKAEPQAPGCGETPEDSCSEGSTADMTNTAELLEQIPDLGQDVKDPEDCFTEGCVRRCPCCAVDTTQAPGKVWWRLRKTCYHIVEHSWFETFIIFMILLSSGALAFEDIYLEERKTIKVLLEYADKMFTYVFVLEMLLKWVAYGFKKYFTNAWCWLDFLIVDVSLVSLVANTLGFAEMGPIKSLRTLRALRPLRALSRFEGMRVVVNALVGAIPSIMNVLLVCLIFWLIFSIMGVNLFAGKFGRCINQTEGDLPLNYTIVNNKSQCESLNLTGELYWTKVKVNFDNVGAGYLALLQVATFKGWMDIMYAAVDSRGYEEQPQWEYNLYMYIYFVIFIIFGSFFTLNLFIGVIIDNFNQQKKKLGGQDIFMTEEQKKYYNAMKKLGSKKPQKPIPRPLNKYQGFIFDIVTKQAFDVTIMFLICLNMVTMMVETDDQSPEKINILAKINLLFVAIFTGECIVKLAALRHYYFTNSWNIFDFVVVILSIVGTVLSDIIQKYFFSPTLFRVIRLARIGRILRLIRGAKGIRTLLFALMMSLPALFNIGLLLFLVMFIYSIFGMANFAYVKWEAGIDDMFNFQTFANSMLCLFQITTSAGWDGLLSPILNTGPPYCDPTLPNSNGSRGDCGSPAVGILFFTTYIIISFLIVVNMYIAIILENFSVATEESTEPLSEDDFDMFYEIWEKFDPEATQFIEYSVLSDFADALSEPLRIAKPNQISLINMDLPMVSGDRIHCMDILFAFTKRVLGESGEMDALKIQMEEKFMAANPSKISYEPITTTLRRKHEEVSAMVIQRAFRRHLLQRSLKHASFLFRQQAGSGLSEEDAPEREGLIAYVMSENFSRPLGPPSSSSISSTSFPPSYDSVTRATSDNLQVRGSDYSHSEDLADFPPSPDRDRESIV
Procedure, shortened: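 IC50 derived from concentration-response of inward current at the 20th of 20 action-potential-mimicking pulses (holding −80 mV, leak corrected with −100 mV step). HEK293 cells stably expressing human Nav1.5, room temperature, extracellular pH 7.4, intracellular CsF-based pH 7.3, 0.1% DMSO.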

human Nav1.7, sequence (Q15858 whole entry): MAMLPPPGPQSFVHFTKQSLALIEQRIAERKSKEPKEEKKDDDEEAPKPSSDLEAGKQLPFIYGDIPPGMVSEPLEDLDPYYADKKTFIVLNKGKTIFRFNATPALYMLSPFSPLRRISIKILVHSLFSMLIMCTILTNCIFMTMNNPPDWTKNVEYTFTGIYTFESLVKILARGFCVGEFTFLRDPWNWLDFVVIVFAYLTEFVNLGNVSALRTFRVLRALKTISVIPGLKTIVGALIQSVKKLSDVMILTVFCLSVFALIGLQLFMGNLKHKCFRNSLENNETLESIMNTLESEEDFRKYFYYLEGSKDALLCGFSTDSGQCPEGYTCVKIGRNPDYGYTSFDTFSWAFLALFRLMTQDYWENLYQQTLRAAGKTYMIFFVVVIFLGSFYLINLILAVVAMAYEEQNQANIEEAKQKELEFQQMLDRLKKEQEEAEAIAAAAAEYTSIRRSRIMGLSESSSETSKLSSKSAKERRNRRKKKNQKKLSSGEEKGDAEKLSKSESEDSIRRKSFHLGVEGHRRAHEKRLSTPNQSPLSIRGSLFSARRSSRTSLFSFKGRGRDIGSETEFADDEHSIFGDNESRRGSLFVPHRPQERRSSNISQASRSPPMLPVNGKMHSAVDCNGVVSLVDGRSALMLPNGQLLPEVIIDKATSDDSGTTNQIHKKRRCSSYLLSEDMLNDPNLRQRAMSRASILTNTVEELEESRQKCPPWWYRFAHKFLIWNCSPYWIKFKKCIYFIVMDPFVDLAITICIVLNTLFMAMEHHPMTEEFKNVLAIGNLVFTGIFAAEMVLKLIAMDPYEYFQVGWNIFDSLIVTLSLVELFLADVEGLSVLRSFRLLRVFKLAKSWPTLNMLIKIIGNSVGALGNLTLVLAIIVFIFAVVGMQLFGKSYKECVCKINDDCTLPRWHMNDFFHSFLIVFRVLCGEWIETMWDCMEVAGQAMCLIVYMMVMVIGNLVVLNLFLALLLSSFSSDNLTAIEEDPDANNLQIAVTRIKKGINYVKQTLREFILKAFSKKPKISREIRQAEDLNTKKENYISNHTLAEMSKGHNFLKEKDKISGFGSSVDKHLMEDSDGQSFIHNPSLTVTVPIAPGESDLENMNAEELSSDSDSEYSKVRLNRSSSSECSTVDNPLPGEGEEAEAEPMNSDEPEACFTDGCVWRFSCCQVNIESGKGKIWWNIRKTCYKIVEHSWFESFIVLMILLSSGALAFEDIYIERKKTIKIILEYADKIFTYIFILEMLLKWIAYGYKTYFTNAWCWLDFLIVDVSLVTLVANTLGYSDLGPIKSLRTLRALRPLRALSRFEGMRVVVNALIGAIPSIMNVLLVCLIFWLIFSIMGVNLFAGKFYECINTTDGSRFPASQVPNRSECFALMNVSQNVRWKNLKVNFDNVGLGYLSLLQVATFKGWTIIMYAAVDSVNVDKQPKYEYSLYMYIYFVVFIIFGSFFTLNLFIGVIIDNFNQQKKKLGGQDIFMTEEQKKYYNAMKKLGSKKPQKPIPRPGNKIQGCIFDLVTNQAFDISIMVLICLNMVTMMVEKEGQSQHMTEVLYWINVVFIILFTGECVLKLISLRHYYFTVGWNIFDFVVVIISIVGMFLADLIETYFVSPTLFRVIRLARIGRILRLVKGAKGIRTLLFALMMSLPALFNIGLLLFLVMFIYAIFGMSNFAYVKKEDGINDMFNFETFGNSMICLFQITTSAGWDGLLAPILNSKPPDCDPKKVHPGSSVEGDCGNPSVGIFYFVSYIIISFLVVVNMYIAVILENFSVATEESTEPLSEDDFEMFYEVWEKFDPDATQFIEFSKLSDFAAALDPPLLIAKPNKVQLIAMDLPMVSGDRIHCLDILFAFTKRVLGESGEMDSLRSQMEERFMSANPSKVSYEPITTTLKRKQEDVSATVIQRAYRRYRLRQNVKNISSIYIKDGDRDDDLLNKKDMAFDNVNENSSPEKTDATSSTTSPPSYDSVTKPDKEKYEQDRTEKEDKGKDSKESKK
human Nav1.7, sequence (Q07699 19-218 partner): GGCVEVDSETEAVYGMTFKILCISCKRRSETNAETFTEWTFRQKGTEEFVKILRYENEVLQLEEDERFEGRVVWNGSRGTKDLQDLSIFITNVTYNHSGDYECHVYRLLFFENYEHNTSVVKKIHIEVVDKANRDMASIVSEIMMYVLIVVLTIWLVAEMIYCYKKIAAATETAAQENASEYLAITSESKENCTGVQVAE

| Compound | IC50 (human Nav1.7) [µM] | IC50 (human Nav1.5) [µM] |
| --- | --- | --- |
| O=C(N[C@H]1COc2ccccc2C1)c1nc2n(c1-c1ccccc1)CCN(CC(F)(F)F)C2 [Example 338] | < 10 | ≥ 3 |
| O=C(N[C@H]1COc2ccccc2C1)c1cn2c(n1)COC(c1ccccc1)C2 (some centres unmarked) [Example 340] | < 10 | ≥ 3 |
| O=C(N[C@H]1COc2ccc(CC(F)(F)F)cc2C1)c1nc2n(c1-c1ccccn1)CCOC2 [Example 343] | < 1 | 1 to 3 |
| Cn1ccc(-c2c(C(=O)N[C@H]3COc4ccc(C(F)(F)F)cc4C3)nc3n2CCOC3)n1 [Example 345] | < 1 | 1 to 3 |
| O=C(N[C@H]1COc2ccccc2C1)c1cc2n(n1)CCC(c1ccccc1)O2 (some centres unmarked) [Example 349] | < 1 | 1 to 3 |
| O=C(c1cc2n(n1)CCC(c1ccccc1)O2)N1CCC(c2cccc(C(F)(F)F)c2)C1 (centres unmarked) [Example 350] | < 10 | ≥ 3 |
| COc1cccc2c1CC(NC(=O)c1cc3n(n1)CCC(c1ccccc1)O3)CO2 (centres unmarked) [Example 351] | < 1 | ≥ 3 |
| O=C(NC1COc2ccc(F)cc2C1)c1cc2n(n1)CCC(c1ccccc1)O2 (centres unmarked) [Example 352] | < 1 | ≥ 3 |
| O=C(NC1COc2cccc(Br)c2C1)c1cc2n(n1)CCC(c1ccccc1)O2 (centres unmarked) [Example 353] | < 10 | ≥ 3 |
| O=C(NC1COc2cccc(F)c2C1)c1cc2n(n1)CCC(c1ccccc1)O2 (centres unmarked) [Example 356] | < 1 | ≥ 3 |
| O=C(N[C@H]1COc2ccc(-c3cncnc3)cc2C1)c1cc2n(n1)CCC(c1ccccc1F)O2 (some centres unmarked) [Example 357] | < 1 | ≥ 3 |
| O=C(N[C@H]1COc2ccc(Cl)cc2C1)c1cc2n(n1)CCC(c1cccnc1)O2 (some centres unmarked) [Example 358] | < 10 | ≥ 3 |
| N#Cc1ccc2c(c1)C[C@@H](NC(=O)c1cc3n(n1)CCC(c1ccccc1F)O3)CO2 (some centres unmarked) [Example 359] | < 1 | ≥ 3 |
| COCc1ccc2c(c1)C[C@@H](NC(=O)c1cc3n(n1)CCC(c1ccccc1F)O3)CO2 (some centres unmarked) [Example 361] | < 1 | ≥ 3 |
| O=C(N[C@H]1COc2ccc(Cl)cc2C1)c1cc2n(n1)CCC(c1ccnc(C(F)(F)F)c1)O2 (some centres unmarked) [Example 362] | < 10 | ≥ 3 |
| N#Cc1ccc2c(c1)C[C@@H](NC(=O)c1cc3n(n1)CCC(c1ccc(F)cc1)O3)CO2 (some centres unmarked) [Example 364] | < 1 | 1 to 3 |
| N#Cc1ccc2c(c1)C[C@@H](NC(=O)c1cc3n(n1)CCC(c1c(F)cccc1F)O3)CO2 (some centres unmarked) [Example 366] | < 1 | 1 to 3 |
| N#Cc1ccc2c(c1)C[C@@H](NC(=O)c1cc3n(n1)CCC(C(F)(F)F)O3)CO2 (some centres unmarked) [Example 373] | < 10 | ≥ 3 |
| N#Cc1ccc2c(c1)C[C@@H](NC(=O)c1cc3n(n1)CCC(C(F)(F)F)O3)CO2 (some centres unmarked) [Example 374] | < 1 | ≥ 3 |
| O=C(N[C@H]1COc2ccc(-c3cccnc3)cc2C1)c1cc2n(n1)CCC(C(F)(F)F)O2 (some centres unmarked) [Example 375] | < 1 | ≥ 3 |
| COc1ccc(-c2ccc3c(c2)C[C@@H](NC(=O)c2cc4n(n2)CCC(C(F)(F)F)O4)CO3)cn1 (some centres unmarked) [Example 378] | < 10 | ≥ 3 |

| Compound | IC50 (human Nav1.7) [µM] | IC50 (human Nav1.5) [µM] |
| --- | --- | --- |
| O=C(N[C@H]1COc2ccc(-c3ccccn3)cc2C1)c1cc2n(n1)CCC(C(F)(F)F)O2 (some centres unmarked) [Example 382] | < 10 | ≥ 3 |
| CC1(C)CCn2nc(C(=O)N[C@H]3COc4ccc(-c5ccccn5)cc4C3)cc2O1 [Example 383] | < 1 | ≥ 3 |
| N#Cc1ccc2c(c1)C[C@@H](NC(=O)c1cc3n(n1)CCC(C#CC(F)(F)F)O3)CO2 (some centres unmarked) [Example 386] | < 1 | ≥ 3 |
| CCCC1CCn2nc(C(=O)N[C@H]3COc4ccc(Cl)cc4C3)cc2O1 (some centres unmarked) [Example 389] | < 1 | 1 to 3 |
| O=C(N[C@H]1COc2ccc(COCC3CC3)cc2C1)c1cc2n(n1)CCC(C(F)(F)F)O2 (some centres unmarked) [Example 391] | < 1 | ≥ 3 |
| O=C(N[C@H]1COc2ccc(COc3ccccn3)cc2C1)c1cc2n(n1)CCC(C(F)(F)F)O2 (some centres unmarked) [Example 392] | < 1 | 1 to 3 |
| COC(C)(C)CCc1ccc2c(c1)C[C@@H](NC(=O)c1cc3n(n1)CCC(C(F)(F)F)O3)CO2 (some centres unmarked) [Example 400] | < 1 | ≥ 3 |
| O=C(N[C@H]1COc2ccc(CCN3CC(F)(F)C3)cc2C1)c1cc2n(n1)CCC(C(F)(F)F)O2 (some centres unmarked) [Example 401] | < 10 | ≥ 3 |
| O=C(N[C@H]1COc2ccc(C(F)(F)F)cc2C1)c1cc2n(n1)CCC(C#CC1CC1)O2 (some centres unmarked) [Example 402] | < 1 | ≥ 3 |
| N#Cc1ccc2c(c1)C[C@@H](NC(=O)c1cc3n(n1)CCC(COc1ccccn1)O3)CO2 (some centres unmarked) [Example 411] | < 1 | ≥ 3 |
| N#Cc1ccc2c(c1)C[C@@H](NC(=O)c1cc3n(n1)CCC(COCC(F)(F)C(F)(F)F)O3)CO2 (some centres unmarked) [Example 412] | < 1 | 1 to 3 |
| N#Cc1ccc2c(c1)C[C@@H](NC(=O)c1cc3n(n1)CCC(CSCC(F)(F)F)O3)CO2 (some centres unmarked) [Example 422] | < 10 | ≥ 3 |
| O=C(N[C@H]1COc2ccc(-c3cnccn3)cc2C1)c1cc2n(n1)CCC(COCC1CC1)O2 (some centres unmarked) [Example 425] | < 1 | ≥ 3 |
| Cn1ccc(-c2ccc3c(c2)C[C@@H](NC(=O)c2cc4n(n2)CCC(COCC2CC2)O4)CO3)n1 (some centres unmarked) [Example 426] | < 10 | ≥ 3 |
| O=C(N[C@H]1COc2ccc(-c3cscn3)cc2C1)c1cc2n(n1)CCC(COCC1CC1)O2 (some centres unmarked) [Example 427] | < 1 | 1 to 3 |
| O=C(N[C@H]1COc2ccc(-c3cncs3)cc2C1)c1cc2n(n1)CCC(COCC1CC1)O2 (some centres unmarked) [Example 428] | < 1 | ≥ 3 |
| Cn1ncc(-c2ccc3c(c2)C[C@@H](NC(=O)c2cc4n(n2)CCC(COCC2CC2)O4)CO3)n1 (some centres unmarked) [Example 429] | < 10 | ≥ 3 |
| O=C(N[C@H]1COc2ccc(C(F)(F)F)cc2C1)c1cc2n(n1)CCC(COCC(F)(F)F)O2 (some centres unmarked) [Example 432] | < 1 | 1 to 3 |
| O=C(N[C@H]1COc2ccc(CC(F)F)cc2C1)c1cc2n(n1)CCC(COC1CCC1)O2 (some centres unmarked) [Example 437] | < 1 | 1 to 3 |
| O=C(N[C@H]1COc2ccc(CCOC(F)(F)F)cc2C1)c1cc2n(n1)CC(C(F)(F)F)O2 (some centres unmarked) [Example 447] | < 1 | ≥ 3 |
| O=C(N[C@H]1COc2ccc(Cl)cc2C1)c1cc2n(n1)CC(CNCC(F)(F)F)O2 (some centres unmarked) [Example 448] | < 1 | 1 to 3 |

| Compound | IC50 (human Nav1.7) [µM] | IC50 (human Nav1.5) [µM] |
| --- | --- | --- |
| N#Cc1ccc2c(c1)C[C@@H](NC(=O)c1cc3n(n1)CC(COc1ccccn1)O3)CO2 (some centres unmarked) [Example 450] | < 10 | ≥ 3 |
| O=C(N[C@H]1COc2ccc(Cl)cc2C1)c1cc2n(n1)CC(CCn1cccn1)O2 (some centres unmarked) [Example 451] | < 1 | 1 to 3 |
| N#Cc1ccc2c(c1)C[C@@H](NC(=O)c1cc3n(n1)CC(COCC1CC1)O3)CO2 (some centres unmarked) [Example 454] | < 10 | ≥ 3 |
| O=C(N[C@H]1COc2ccc(-c3cnccn3)cc2C1)c1cc2n(n1)CC(CCOCC(F)(F)F)O2 (some centres unmarked) [Example 456] | < 1 | 1 to 3 |
| Cn1ccc(-c2ccc3c(c2)C[C@@H](NC(=O)c2cc4n(n2)CC(CCSCC(F)(F)F)O4)CO3)n1 (some centres unmarked) [Example 457] | < 1 | ≥ 3 |
| Cn1cc(-c2ccc3c(c2)C[C@@H](NC(=O)c2cc4n(n2)CC(CCOCC2CC2)O4)CO3)cn1 (some centres unmarked) [Example 460] | < 1 | ≥ 3 |
| Cn1ccc(-c2ccc3c(c2)C[C@@H](NC(=O)c2cc4n(n2)CC(CCOCC2CC2)O4)CO3)n1 (some centres unmarked) [Example 461] | < 1 | 1 to 3 |
| O=C(N[C@H]1COc2ccc(CCOC(F)(F)F)cc2C1)c1cc2n(n1)CC(COC(F)F)O2 (some centres unmarked) [Example 462] | < 1 | ≥ 3 |
| N#Cc1ccc2c(c1)C[C@@H](NC(=O)c1cc3n(n1)CC(COCC1CCC1)O3)CO2 (some centres unmarked) [Example 464] | < 1 | ≥ 3 |
| O=C(N[C@H]1COc2ccc(CC(F)F)cc2C1)c1cc2n(n1)CC(CCOCC(F)(F)F)O2 (some centres unmarked) [Example 466] | < 1 | 1 to 3 |
| COc1ncc(-c2ccc3c(c2)C[C@@H](NC(=O)c2cc4n(n2)CC(COCC2CC2)O4)CO3)cn1 (some centres unmarked) [Example 468] | < 1 | ≥ 3 |
| N#Cc1ccc2c(c1)C[C@@H](NC(=O)c1cc3n(n1)CC(CCOC1CCC1)O3)CO2 (some centres unmarked) [Example 470] | < 1 | 1 to 3 |
| O=C(N[C@H]1COc2ccc(Cl)cc2C1)c1nn2c(c1-c1ccccc1)OCCCC2 [Example 481] | < 1 | ≥ 3 |
| O=C(N[C@H]1COc2ccccc2C1)c1cc2n(n1)CCN(CC(F)(F)C(F)(F)F)C2 [Example 487] | < 1 | 1 to 3 |
| O=C(N[C@H]1COc2ccccc2C1)c1cc2n(n1)CCN(CC1CC(F)(F)C1)C2 [Example 488] | < 10 | ≥ 3 |
| N#Cc1ccc2c(c1)C[C@@H](NC(=O)c1cc3n(n1)CCN(CC(F)(F)C(F)(F)F)C3)CO2 [Example 489] | < 10 | ≥ 3 |
| O=C(N[C@H]1COc2ccccc2C1)c1cc2n(n1)CCN(CC(C1CC1)C1CC1)C2 [Example 490] | < 10 | ≥ 3 |
| N#Cc1ccc2c(c1)C[C@@H](NC(=O)c1cc3n(n1)CCN(CCC1CC1)C3)CO2 [Example 491] | < 10 | ≥ 3 |
| O=C(N[C@H]1COc2ccc(C(F)F)cc2C1)c1cc2n(n1)CCN(Cc1ccccn1)C2 [Example 492] | < 10 | ≥ 3 |
